Laboratory results published in ChEMBL document CHEMBL4024742, “Pharmaceutical Approaches to Target Antibiotic Resistance Mechanisms” (J Med Chem, 2017).
≈ marks a conversion by molar mass, not a printed value.

Assays:
Escherichia coli [1] = experiment: Antibacterial activity against multi drug-resistant Escherichia coli KG1 after 24 hrs by serial dilution method; type: functional; conditions: KG1, 24 h
Escherichia coli [2] = experiment: Antibacterial activity against multi drug-resistant Escherichia coli EM7 mutant after 24 hrs by serial dilution method; type: functional
Escherichia coli [3] = experiment: Antibacterial activity against multi drug-sensitive Escherichia coli MTCC 739 after 24 hrs by serial dilution method; type: functional; conditions: MTCC 739, 24 h
Escherichia coli [4] = experiment: Antibacterial activity against multi drug-resistant Escherichia coli EM5 mutant after 24 hrs by serial dilution method; type: functional
Escherichia coli [5] = experiment: Antibacterial activity against multi drug-resistant Escherichia coli KG4 after 24 hrs by serial dilution method; type: functional; conditions: KG4, 24 h
Escherichia coli [6] = experiment: Potentiation of tetracycline induced-antimicrobial activity against Escherichia coli assessed as fold reduction in tetracycline MIC at 25 ug/ml after 24 hrs by broth checkerboard method; type: functional
Escherichia coli [7] = experiment: Antimicrobial activity against Escherichia coli; type: functional
[8] = Inhibition of Escherichia coli PBP2
Pseudomonas aeruginosa = experiment: Antimicrobial activity against Pseudomonas aeruginosa; type: functional
Enterobacter = experiment: Antimicrobial activity against Enterobacter; type: functional
Staphylococcus aureus [9] = experiment: Antibiofilm activity against methicillin-resistant Staphylococcus aureus BAA-44 after 24 hrs by crystal violet staining based assay; type: functional; conditions: BAA-44, 24 h
Staphylococcus aureus [10] = experiment: Antibiofilm activity against methicillin-resistant Staphylococcus aureus BAA-44 at 100 uM after 24 hrs by crystal violet staining based assay; type: functional; conditions: BAA-44, 24 h
[11] = Inhibition of Mycobacterium tuberculosis Eis
[12] = Inhibition of Escherichia coli KPC-2 using nitrocefin as substrate preincubated for 5 mins followed by substrate addition
[13] = Inhibition of Escherichia coli SHV-1 using nitrocefin as substrate preincubated for 5 mins followed by substrate addition
[14] = Inhibition of bacterial AmpC; set-up: species or system Bacteria
[15] = Inhibition of bacterial IMP-1 using nitrocefin as substrate; set-up: species or system Bacteria
[16] = Inhibition of bacterial AmpC using nitrocefin as substrate incubated for 5 mins followed by substrate addition by UV-vis spectrophotometer; set-up: species or system Bacteria
[17] = target: T1, Quinolone resistance protein NorA (Staphylococcus aureus) (UniProt P0A0J7); experiment: Inhibition of Staphylococcus aureus 1199B NorA assessed as potentiation of ciprofloxacin-induced antibacterial activity at 32 ug/ml after 24 hrs (reference value: 16 ug/ml)
T1 sequence (whole entry): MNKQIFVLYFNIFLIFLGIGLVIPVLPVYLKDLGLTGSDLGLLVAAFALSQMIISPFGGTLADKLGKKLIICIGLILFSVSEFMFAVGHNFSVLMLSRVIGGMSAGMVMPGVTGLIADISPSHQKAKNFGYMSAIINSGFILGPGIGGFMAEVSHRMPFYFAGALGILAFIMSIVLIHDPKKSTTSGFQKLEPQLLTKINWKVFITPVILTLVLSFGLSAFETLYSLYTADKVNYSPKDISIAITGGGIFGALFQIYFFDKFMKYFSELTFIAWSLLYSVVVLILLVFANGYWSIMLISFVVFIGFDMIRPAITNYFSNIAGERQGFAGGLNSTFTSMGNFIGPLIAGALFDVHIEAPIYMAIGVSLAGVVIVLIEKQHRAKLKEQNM

Staphylococcus aureus [18] = experiment: Antibacterial activity against Staphylococcus aureus ATCC 25923 after 24 hrs by broth microdilution method; type: functional; conditions: ATCC 25923, 24 h
Staphylococcus aureus [19] = experiment: Antibacterial activity against Staphylococcus aureus 1199B after 24 hrs by broth microdilution method; type: functional
[20] = target: T1, Quinolone resistance protein NorA (Staphylococcus aureus); experiment: Inhibition of Staphylococcus aureus 1199B NorA assessed as potentiation of ciprofloxacin-induced antibacterial activity by measuring fold reduction in ciprofloxacin MIC at 12.5 to 25 uM
[21] = Inhibition of bacterial CMY by measuring nitrocefin degradation; set-up: species or system Bacteria
[22] = Inhibition of bacterial SHV by measuring nitrocefin degradation; set-up: species or system Bacteria
[23] = Inhibition of bacterial KPC by measuring nitrocefin degradation; set-up: species or system Bacteria
[24] = Inhibition of bacterial CTX-M by measuring nitrocefin degradation; set-up: species or system Bacteria
[25] = test system: Staphylococcus epidermidis; experiment: Inhibition of biofilm formation in Staphylococcus epidermidis DSM 3269 at 1.5 ug/ml after 24 hrs by MTT assay; type: functional; conditions: DSM 3269, 24 h
Staphylococcus aureus [26] = experiment: Inhibition of biofilm formation in Staphylococcus aureus ATCC 29213 at 1.5 ug/ml after 24 hrs by MTT assay; type: functional; conditions: ATCC 29213, 24 h
Staphylococcus aureus [27] = experiment: Inhibition of biofilm formation in Staphylococcus aureus ATCC 657 at 1.5 ug/ml after 24 hrs by MTT assay; type: functional; conditions: ATCC 657, 24 h
Staphylococcus aureus [28] = experiment: Inhibition of biofilm formation in Staphylococcus aureus ATCC 702 at 1.5 ug/ml after 24 hrs by MTT assay; type: functional; conditions: ATCC 702, 24 h
[29] = test system: Staphylococcus epidermidis; experiment: Inhibition of biofilm formation in Staphylococcus epidermidis RP62A at 1.5 ug/ml after 24 hrs by MTT assay; type: functional
Staphylococcus aureus [30] = experiment: Inhibition of biofilm formation in Staphylococcus aureus ATCC 25923 at 1.5 ug/ml after 24 hrs by MTT assay; type: functional; conditions: ATCC 25923, 24 h
[31] = target: T2, Quinolone resistance protein NorA (Staphylococcus aureus, UniProt P0A0J7); experiment: Inhibition of Staphylococcus aureus 1199B NorA assessed as reduction in ethidium bromide efflux by fluorescence assay
T2 sequence (P0A0J7 whole entry): T1 sequence (whole entry)

`O=C1CC[C@H](O)c2ccccc21` [(-)-4-HYDROXY-ALPHA-TETRALONE] showed an MIC (Escherichia coli [1]) of 250 to 1000 µg/mL (≈ 1540 to 6170 µM), an MIC (Escherichia coli [2]) of 250 to 1000 µg/mL (≈ 1540 to 6170 µM) and an MIC (Escherichia coli [3]) of 250 to 1000 µg/mL (≈ 1540 to 6170 µM). The MIC (Escherichia coli [4]) was 250 to 1000 µg/mL (≈ 1540 to 6170 µM), the MIC (Escherichia coli [5]) was 250 to 1000 µg/mL (≈ 1540 to 6170 µM) and the “fold change (FC)” value (Escherichia coli [6]) was 4.

For `O=C(NNC(=O)[C@@H]1CC[C@@H]2CN1C(=O)N2OS(=O)(=O)[O-])C1CNC1.[Na+]`, the MIC (Escherichia coli [7]) was ≤ 2 µg/mL, the IC50 [8] was 3600 nM and the MIC (Pseudomonas aeruginosa) was ≤ 2 µg/mL. The MIC (Enterobacter) was ≤ 2 µg/mL.

In the case of `CCCCOc1cc(Br)cc(/C=C(\C)Cn2cc(CCCCCc3c[nH]c(N)n3)nn2)c1F`, the IC50 (Staphylococcus aureus [9]) is reported as 4500 nM and the inhibition at 100 µM (Staphylococcus aureus [10]) is reported as > 94%.

`O=C(C[n+]1ccn2cccc2c1-c1ccccc1)c1ccccc1` gave an IC50 [11] of 188 nM.

For `CCCCc1ccc(/C=C(\C)Cn2cc(CCCCCc3c[nH]c(N)n3)nn2)cc1`, the inhibition at 100 µM (Staphylococcus aureus [10]) was > 94%.

For `O=C(NOC1CCNC1)[C@@H]1CC[C@@H]2CN1C(=O)N2OS(=O)(=O)[O-].[Na+]` (some centres not stated), the MIC (Escherichia coli [7]) was ≤ 2 µg/mL, the IC50 [8] was 16000 nM and the MIC (Pseudomonas aeruginosa) was ≤ 2 µg/mL. The MIC (Enterobacter) was ≤ 2 µg/mL.

`O=C(Cc1cccs1)NC(Cn1cc(C(=O)O)nn1)B(O)O` (configuration not stated) gave an IC50 [12] of 84 nM and an IC50 [13] of 130 nM.

In the case of `O=S(=O)(NCB(O)O)c1ccc(-c2nnn[nH]2)cc1C(F)(F)F`, the Ki [14] is reported as 0.05 nM.

`O=C(O)[C@H](Cc1ccc2c(c1)OCO2)[C@@H](Cc1ccc2c(c1)OCO2)C(=O)O` showed an IC50 [15] of 210 nM.

For `O=C(Cc1cccs1)N[C@H](B(O)O)c1cccc(C(=O)O)c1`, the Ki [16] was 1 nM.

In the case of `O=C(NC(C(=O)O)c1c[nH]c2ccc(Br)cc12)c1c[nH]c2ccc(Br)cc12` (configuration not stated), the MIC [17] is reported as 4 µg/mL, the MIC (Staphylococcus aureus [18]) is reported as > 32 µg/mL and the MIC (Staphylococcus aureus [19]) is reported as > 32 µg/mL.

`COc1cc(CNC(=O)CCCC/C=C/C(C)C)ccc1O` gave a fold change (FC) [20] of 2 to 4.

Work on `O=C(O)C[C@@H]1CC[C@H](NC(=O)Cc2cccs2)B(O)O1` [VABORBACTAM] yielded a Ki [21] of 29 to 99 nM, a Ki [22] of 29 to 99 nM and a Ki [23] of 29 to 99 nM. It also gave a Ki [24] of 29 to 99 nM.

Work on `O=C(c1cc(Cl)cc(Cl)c1O)c1[nH]c(Br)c(Br)c1Br` yielded an inhibition at 1.5 µg/mL [25] of 67.9 to 86.7%, an inhibition at 1.5 µg/mL (Staphylococcus aureus [26]) of 67.9 to 86.7% and an inhibition at 1.5 µg/mL (Staphylococcus aureus [27]) of 67.9 to 86.7%. The inhibition at 1.5 µg/mL (Staphylococcus aureus [28]) was 67.9 to 86.7%, the inhibition at 1.5 µg/mL [29] was 67.9 to 86.7% and the inhibition at 1.5 µg/mL (Staphylococcus aureus [30]) was 67.9 to 86.7%.

For `O=C(O)[C@@H](Cc1ccc2c(c1)OCO2)[C@@H](Cc1ccc2c(c1)OCO2)C(=O)O`, the IC50 [15] was 200000 nM.

With `CC(C)(C)OC(=O)NCC(NC(=O)c1c[nH]c2ccccc12)c1c[nH]c2ccccc12` (configuration not stated) the MIC (Staphylococcus aureus [18]) was > 32 µg/mL and the MIC (Staphylococcus aureus [19]) was > 32 µg/mL.

For `O=C(c1cc(Br)cc(Br)c1O)c1[nH]c(Br)c(Br)c1Br`, the inhibition at 1.5 µg/mL [25] was 68.5 to 100%, the inhibition at 1.5 µg/mL (Staphylococcus aureus [26]) was 68.5 to 100% and the inhibition at 1.5 µg/mL (Staphylococcus aureus [27]) was 68.5 to 100%. The inhibition at 1.5 µg/mL (Staphylococcus aureus [28]) was 68.5 to 100%, the inhibition at 1.5 µg/mL [29] was 68.5 to 100% and the inhibition at 1.5 µg/mL (Staphylococcus aureus [30]) was 68.5 to 100%.

`COC(=O)[C@H]1[C@H]2C[C@@H]3c4[nH]c5cc(OC)ccc5c4CCN3C[C@H]2C[C@@H](OC(=O)c2cc(OC)c(OC)c(OC)c2)[C@@H]1OC` [RESERPINE] gave an IC50 [31] of 9000 to 14000 nM.

In the case of `CCCCCCCCCCCCCCCC(=O)O[C@H]1CCC(=O)c2ccccc21` [4-O-PALMITOYL-ALPHATETRALONE], the MIC (Escherichia coli [1]) is reported as 250 to 1000 µg/mL (≈ 624 to 2500 µM), the MIC (Escherichia coli [2]) is reported as 250 to 1000 µg/mL (≈ 624 to 2500 µM) and the MIC (Escherichia coli [3]) is reported as 250 to 1000 µg/mL (≈ 624 to 2500 µM). The MIC (Escherichia coli [4]) was 250 to 1000 µg/mL (≈ 624 to 2500 µM) and the MIC (Escherichia coli [5]) was 250 to 1000 µg/mL (≈ 624 to 2500 µM).
